Measurements from US20180273970A1, “PLASMID, TRANSFORMED PLANT CELL AND TRANSGENIC PLANT COMPRISING THE SAME, AND METHODS FOR PREPARING A TRANSGENIC PLANT AND FOR INCREASING YIELD OF A PLANT UNDER ABIOTIC STRESSES” (Academia Sinica, priority 2014, published 2018).

Key:
MYBS1-GFP = assay: Cellular localization of MYBS1-GFP in transfected barley aleurones (confocal microscopy); assay type: cell-based; conditions: −S medium containing ABA, 48 h
Experimental: FIG. 10. ABA restricts SKINs, SnRK1A and MYBS1 in the cytoplasm under sugar starvation. Barley aleurones were co-transfected with indicated plasmid constructs and incubated in +S or −S medium with ABA (+ABA) or without ABA (−ABA) for 48 h. Thirty optical sections of 0.9-1.1 μm thickness were prepared for each cell and only five regularly spaced sections (sections 3, 9, 15, 21 and 27) are shown here. C and N indicate higher GFP signals, and c and n indicate lower GFP signals in the cytoplasm and nucleus, respectively. For more section images of each cell, see also FIG. 22 online. (A) Barley aleurones were transfected with Ubi:SKIN1-GFP, Ubi:SKIN2-GFP, Ubi:SnRK1A-GFP or Ubi:MYBS1-GFP alone. (B) Barley aleurones were transfected with Ubi.MYBS1-GFP alone (panel 1) or co-transfected with Ubi.MYBS1-GFP and Ubi:SnRK1A (panel 2), or with Ubi.MYBS1-GFP and Ubi:SnRK1A(Ri) (panel 3). (C) Barley aleurones were co-transfected with Ubi:SnRK1A-GFP and Ubi:SKIN(Ri). (D) Wild type rice (WT) or transgenic rice overexpression Ubi:SKIN(Ri) were transfected with Ubi:SnRK1A-GFP (panels 1-3) or Ubi.MYBS1-GFP (panels 4-6).
Detection of cellular localization of SKIN-GFP, SnRK1A-GFP and MYBS1-GFP fusion proteins were performed as described (Hong et al., 2012). […]

rice seedlings = assay: Germination and seedling shoot growth in water containing ABA; assay type: in vivo; conditions: ABA 1 to 10 μM, 6 days, 28° C., 14-h light/10-h dark
Experimental: FIG. 9. The expression of SKIN is induced by various abiotic stresses and ABA, and SKINs promote the ABA sensitivity. (A) Total RNA was purified from leaves of 2-week-old rice seedlings that had been air dried, treated with 200 mM salt, incubated at 4° C., or treated with 1 μM ABA, or from embryos of seedlings grown underwater (hypoxia), for various lengths of time. RNAs were subjected to quantitative RT-PCR analysis using primers specific for SKIN1 and SKIN2. The highest mRNA level was set as 100%. The lowest mRNA level was assigned a value of 1× and mRNA levels of other samples were calculated relative to this value. Error bars indicate the SE for three replicate experiments. (B) Seeds of transgenic lines SKIN1-Ox(O3), SKIN1-Ri(R3), SKIN2-Ox(02) and SKIN2-Ri(R1) were germinated and grown in water containing various concentrations of ABA at 28° C. under a 14-h light/10-h dark cycle for 6 days. Lengths of shoots were measured. Error bars represent SE (n=8) at significance levels: * p<0.1, ** p<0.05. For photos of treated seedlings, see also FIG. 20 online.
FIG. 20. Growth of transgenic rice overexpressing SKIN is more sensitive to ABA inhibition. Seeds of transgenic lines SKIN1-Ox(O3), SKIN1-Ri(R3), SKIN2-Ox(02) and SKIN2-Ri(R1) were germinated and grown in water containing various concentrations of ABA for 6 days at 28 C under a 14-h light/10-h dark cycle. […]

CC1=CC(=O)CC(C)(C)[C@@]1(O)/C=C/C(C)=C\C(=O)O [ABA, abscisic acid]
Localization of MYBS1-GFP (MYBS1-GFP): exclusively localized in the cytoplasm | Degree of inhibition on growth of wild type and all transgenic lines (rice seedlings): increased with ABA concentrations from 1 to 10 μM
